In patent publication US7270837B2, “Anti-inflammatory cranberry flavonol extract preparations” (Rutgers, The State University of New Jersey, priority 2003, dated 2007):
“Also recorded” adds a separate entry of the source.

Test system: TPA-induced edema of mouse ears
Assay: TPA-induced mouse ear edema assay of quercetin-3-O-(6″-benzoyl)-β-galactoside (Example 3)
Assay type: in vivo, mouse (CD-1 female)
Details: topical, purified compound
Protocol: The anti-inflammatory activity of quercetin-3-O-(6″-benzoyl)-β-galactoside (Peak 19) was tested in vivo with the 12-O-tetradecanoylphorbol-13-acetate (TPA)-induced mouse ear edema assay. Each of the treatments was topically applied to both ears of at least five CD-1 female mice. Treatments included application of either acetone or curcumin controls or the test extract in 20 μl of acetone twenty minutes prior to application of 1.5 nmol of TPA in acetone. After 7 hours post-treatment, mice were sacrificed and 6 mm diameter ear punch biopsies were taken and weighed. The ratio of the difference in the weight of ear punches between TPA treated groups receiving pretreatments of acetone and the test extract, respectively, to the difference in the weight of ear punches between acetone pretreated groups subsequently treated with TPA and acetone, respectively, indicates the degree of anti-inflammatory activity of the test extract.

For `O=C(OC[C@H]1O[C@@H](Oc2c(-c3ccc(O)c(O)c3)oc3cc(O)cc(O)c3c2=O)[C@H](O)[C@@H](O)[C@H]1O)c1ccccc1` [quercetin-3-O-(6″-benzoyl)-β-galactoside], the “anti-inflammatory activity in the TPA-induced mouse ear edema assay (in words)” value was “potent anti-inflammatory agent; also recorded: highly effective inhibitor of inflammation”.
